From patent publication US20180110740A1, “METHODS AND MATERIALS FOR TREATING ENDOMETRIOSIS” (Mayo Foundation for Medical Education and Research, priority 2015, published 2018)

What was measured:
[1] = test system: endometriotic progression; experiment: Dioxin-endometriosis model in wild type mice; assay type: in vivo; conditions: wild type mice gavaged with Dioxin 3 μg/kg, HATI 0.2 μg/gm/day or vehicle
Procedure: (§1) Ishikawa cells were treated with Dioxin (0.1-10 nM) and KLF11 or EV-control. Treatment effects were determined on CYP3A4, a well-characterized CYP450 gene that is also an endometrial estrogen metabolizing enzyme. Promoter and gene expression were determined by reporter assay, qPCR, and western blot. CYP3A4 activity was determined by a specific substrate assay. Promoter histone code was evaluated by ChIP in Ishikawa treated with Dioxin and Histone Acetyl Transferase Inhibitor (HATI) or controls. The Dioxin-endometriosis model was created per published protocols in wild type mice gavaged with Dioxin (3 μg/kg) or vehicle. Animals were additionally treated 0.2 μg/gm/day of HATI or vehicle control (N=10/grp). Disease progression was evaluated in 12 weeks by morphometry, IHC, and qPCR.

CYP3A4 = CYP3A4 promoter, expression and activity in Ishikawa cells (reporter assay, qPCR, western blot, specific substrate assay); assay type: cell-based; conditions: Dioxin 0.1-10 nM
Procedure: as §1

endometriotic lesions = experiment: Endometriotic lesion model: autologous uterine segments implanted onto the peritoneum of Klf11-/- or wt mice; assay type: in vivo; conditions: wt animals; 50 μg/g of body weight; evaluated three weeks after treatment; vs DMSO
Procedure: FIG. 4 is a schematic diagram showing the design of the mouse endometriosis model. Two 0.5 cm uterine fragments are everted, so that the endometrium faces the peritonel cavity. These are then sutured to the flank peritoneum on either side by 8/0 proline microfilament suture.
FIG. 5 contains photographs of Klf11^-/- and wt animals induced to produce endometriosis lesions and treated with DMSO (control), garcinol (0.2 μg/g of body weight, or suberoyl anilide hydroxamic acid (SAHA; 50 μg/g of body weight). SAHA is also known as N-hydroxy-N′-phenyl-octanediamide or vorinostat. Endometriotic progression was evaluated three weeks after treatment. The arrows point to and define lesion associated scarring.
In another experiment, endometriotic lesions were induced in Klf11^-/- or wildtype (wt) mice (n=10 for each group) by implanting autologous 5 mm uterine segments onto the peritoneum (FIGS. 3 and 4). […] In addition, COL1A1 polypeptide expression was increased in implants from Klf11^-/- animals (FIGS. 3D and 3H) as compared to those from wt animals (FIGS. 3C and 3G).

Row | SMILES | lesional CYP3A4 expression ([1]; 12 weeks) | Score ([1]; 12 weeks, P<0.05) | endometriotic disease progression ([1]; evaluated in 12 weeks by morphometry, IHC, qPCR) | CYP3A4 activation (CYP3A4) | fibrosis (endometriotic lesions)
1 | Clc1cc2c(cc1Cl)Oc1cc(Cl)c(Cl)cc1O2 [Dioxin, 2,3,7,8-tetrachlorodibenzodioxin] | lesional epithelial CYP3A4 activation | 26.4 | prolific endometriotic progression | dose-dependently activated | –
2 | O=C(CCCCCCC(=O)Nc1ccccc1)NO [SAHA, N-hydroxy-N′-phenyl-octanediamide] | – | – | – | – | induction of de novo fibrosis
